Data as given in patent publication US9409880B2, “Modulators of TLR3/dsRNA complex and uses thereof” (The Regents of the University of Colorado, a body corporate, priority 2011, dated 2016).

These compounds were tested against T1, TLR3 (Mus musculus, UniProt Q99MB1) (assay: In vitro TLR3 inhibition assay: Poly IC-induced NO production in RAW 264.7 cells). Conditions: 6a vs 4a.
T1 construct: endogenous in cells; host or cells: RAW 264.7
T1 sequence (Q99MB1 26-905): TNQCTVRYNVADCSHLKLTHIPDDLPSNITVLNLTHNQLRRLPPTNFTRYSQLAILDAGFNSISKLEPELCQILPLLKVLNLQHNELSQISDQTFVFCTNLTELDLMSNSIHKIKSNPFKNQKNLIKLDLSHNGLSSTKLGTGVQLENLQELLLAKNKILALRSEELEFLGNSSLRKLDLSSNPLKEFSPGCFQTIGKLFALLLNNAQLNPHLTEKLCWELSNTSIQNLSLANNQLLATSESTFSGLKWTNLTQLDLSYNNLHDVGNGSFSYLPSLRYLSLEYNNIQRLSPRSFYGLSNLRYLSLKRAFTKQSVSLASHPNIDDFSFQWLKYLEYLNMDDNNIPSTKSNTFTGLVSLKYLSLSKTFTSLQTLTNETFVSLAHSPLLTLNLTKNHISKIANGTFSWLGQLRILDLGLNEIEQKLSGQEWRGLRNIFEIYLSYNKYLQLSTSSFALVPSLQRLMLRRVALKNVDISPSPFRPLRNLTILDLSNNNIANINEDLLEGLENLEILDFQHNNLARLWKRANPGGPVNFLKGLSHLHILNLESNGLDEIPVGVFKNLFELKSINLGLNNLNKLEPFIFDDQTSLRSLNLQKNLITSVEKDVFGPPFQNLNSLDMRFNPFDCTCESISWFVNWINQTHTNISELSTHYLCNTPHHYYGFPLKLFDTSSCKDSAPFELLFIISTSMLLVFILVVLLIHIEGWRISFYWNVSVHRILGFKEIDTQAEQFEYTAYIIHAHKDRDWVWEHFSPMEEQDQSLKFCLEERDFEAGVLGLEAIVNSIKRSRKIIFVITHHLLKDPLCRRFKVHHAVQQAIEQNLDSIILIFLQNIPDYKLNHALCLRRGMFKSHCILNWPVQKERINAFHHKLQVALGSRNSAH
Type: cell-based
Excerpt: The initial hits (Figure A) were first evaluated using the present inventors' previously established high-throughput cell assay of TLR3 activation. See, for example, ACS Med. Chem. Lett. 2010, 1, 194 and Bioorg. Med. Chem. Lett., 2010, 20, 5411. Poly IC (Polyriboinosinic:polyribocytidylic acid) has been reported to selectively activate TLR3 signaling, resulting in the activation of nitric oxide synthase and the production nitric oxide (NO) in RAW 264.7 macrophage cells. The NO level was monitored as an indicator of Poly IC-induced TLR3 activation to evaluate the drug's inhibitory activity.
RAW 264.7 (Mouse leukaemic monocyte macrophage cell line) cells were grown in RPMI 1640 medium, supplemented with 10% FBS, penicillin (100 U/mL) and streptomycin ([…]). RAW cells were then planted in 96-well plates at 100,000 cells per well and grown for 24 h in the media descried previously at 37° C. in a 5% CO2 humidified incubator. After 24 h, non-adherent cells and media were removed and replaced with fresh RPMI 1640 medium (only RPMI). The adherent macrophages were treated with high molecular weight polyinosine-polycytidylic acid (Poly IC) (10 μg/mL) (Invivogen), an agonist of TLR3, and then added different concentrates of potential inhibitor. Two rows were only treated with Poly IC as an control. Plates were then incubated for an additional 24 h. Following incubation 100 μL of media was removed and added to flat black 96-well microfluor plates (Thermo Scientific, MA, USA). To each well, 10 μL of 2,3-diaminonaphthalene (0.05 mg/mL in 0.62 M aqueous HCl solution) was added and incubated for 15 min in the dark. The reaction was quenched by addition of 5 μL of a 3 M aqueous NaOH solution and the plate was read on Beckman Coulter DTX880 reader (Beckman Coulter, Calif., USA) with excitation at 365 nm and emission at 450 nm. The nitrite (a stable metabolite of nitric oxide) concentration was determined from a nitrite standard curve. The inhibition rate (%) of NO release was determined using the following formula: Inhibition (%)=[Poly IC(OD450)−Compounds (OD450)]/[Poly IC(OD450)−Control (OD450)]×100. The IC50 values for both inhibition and cytotoxicity were determined graphically using software Origin v7.5.

SMILES	decrease in potency [fold]
COc1ccc2c(Cl)c(C(=O)N[C@H](Cc3ccccc3)C(=O)O)sc2c1 [Compound 6a, (R)-2-(3-chloro-6-methoxybenzo[b]thiophene-2-carboxamido)-3-phenylpropanoic acid]	10

Same assay, conditions: whole cell inhibitory activity; Poly IC-induced NO, RAW 264.7; average ± SD, at least three independent tests

SMILES	IC50 [µM]
O=C(N[C@@H](Cc1ccccc1)C(=O)O)c1cc2ccccc2s1 [Compound 1b, (S)-2-(benzo[b]thiophene-2-carboxamido)-3-phenylpropanoic acid]	> 155
Cc1ccc2c(Cl)c(C(=O)N[C@H](Cc3ccccc3)C(=O)O)sc2c1 [Compound 2a, (R)-2-(3-chloro-6-methylbenzo[b]thiophene-2-carboxamido)-3-phenylpropanoic acid]	11.8 ± 1.3
Cc1ccc2c(Cl)c(C(=O)N[C@@H](Cc3ccccc3)C(=O)O)sc2c1 [Compound 2b, (S)-2-(3-chloro-6-methylbenzo[b]thiophene-2-carboxamido)-3-phenylpropanoic acid]	31.7 ± 0.7
O=C(N[C@H](Cc1ccccc1)C(=O)O)c1sc2cc(Cl)ccc2c1Cl [Compound 3a, (R)-2-(3,6-dichlorobenzo[b]thiophene-2-carboxamido)-3-phenylpropanoic acid]	5.6 ± 0.32
O=C(N[C@@H](Cc1ccccc1)C(=O)O)c1sc2cc(Cl)ccc2c1Cl [Compound 3b, (S)-2-(3,6-dichlorobenzo[b]thiophene-2-carboxamido)-3-phenylpropanoic acid]	11.8 ± 2.5
O=C(N[C@@H](Cc1ccccc1)C(=O)O)c1sc2cc(F)ccc2c1Cl [Compound 4b, (S)-2-(3-chloro-6-fluorobenzo[b]thiophene-2-carboxamido)-3-phenylpropanoic acid]	21.9 ± 0.7
O=C(N[C@H](Cc1ccccc1)C(=O)O)c1sc2cc(C(F)(F)F)ccc2c1Cl [Compound 5a, (R)-2-(3-chloro-6-(trifluoromethyl)benzo[b]thiophene-2-carboxamido)-3-phenylpropanoic acid]	6.28 ± 1.05
O=C(N[C@@H](Cc1ccccc1)C(=O)O)c1sc2cc(C(F)(F)F)ccc2c1Cl [Compound 5b, (S)-2-(3-chloro-6-(trifluoromethyl)benzo[b]thiophene-2-carboxamido)-3-phenylpropanoic acid]	19.8 ± 3.6
COc1ccc2c(Cl)c(C(=O)N[C@H](Cc3ccccc3)C(=O)O)sc2c1 [Compound 6a, (R)-2-(3-chloro-6-methoxybenzo[b]thiophene-2-carboxamido)-3-phenylpropanoic acid]	36.7 ± 3.9
COc1ccc2c(Cl)c(C(=O)N[C@@H](Cc3ccccc3)C(=O)O)sc2c1 [Compound 6b, (S)-2-(3-chloro-6-methoxybenzo[b]thiophene-2-carboxamido)-3-phenylpropanoic acid]	> 100
O=C(N[C@H](Cc1ccc(O)cc1)C(=O)O)c1sc2cc(F)ccc2c1Cl [Compound 7a, (R)-2-(3-chloro-6-fluorobenzo[b]thiophene-2-carboxamido)-3-(4-hydroxyphenyl)propanoic acid]	56.4 ± 5.2
O=C(N[C@@H](Cc1ccc(O)cc1)C(=O)O)c1sc2cc(F)ccc2c1Cl [Compound 7b, (S)-2-(3-chloro-6-fluorobenzo[b]thiophene-2-carboxamido)-3-(4-hydroxyphenyl)propanoic acid]	84.7 ± 2.4
O=C(N[C@H](Cc1ccccc1)C(=O)O)c1sc2cc(F)c(F)cc2c1Cl [Compound 8a, (R)-2-(3-chloro-5,6-difluorobenzo[b]thiophene-2-carboxamido)-3-phenylpropanoic acid]	70.7 ± 2.1
O=C(N[C@@H](Cc1ccccc1)C(=O)O)c1sc2cc(F)c(F)cc2c1Cl [Compound 8b, (S)-2-(3-chloro-5,6-difluorobenzo[b]thiophene-2-carboxamido)-3-phenylpropanoic acid]	79.5 ± 3.4
O=C(N[C@H](Cc1ccc(O)cc1)C(=O)O)c1cc2ccccc2s1 [Compound 9a, (R)-2-(benzo[b]thiophene-2-carboxamido)-3-(4-hydroxyphenyl)propanoic acid]	> 100
O=C(N[C@@H](Cc1ccc(O)cc1)C(=O)O)c1cc2ccccc2s1 [Compound 9b]	> 100
O=C(N[C@H](Cc1ccccc1)C(=O)O)c1cc2cc(F)ccc2s1 [Compound 10a, (R)-2-(5-fluorobenzo[b]thiophene-2-carboxamido)-3-phenylpropanoic acid]	> 100
O=C(N[C@@H](Cc1ccccc1)C(=O)O)c1cc2cc(F)ccc2s1 [Compound 10b, (S)-2-(5-fluorobenzo[b]thiophene-2-carboxamido)-3-phenylpropanoic acid]	> 100
O=C(N[C@H](Cc1ccccc1)C(=O)O)c1sc2ccccc2c1Cl [Compound 11a, (R)-2-(3-chlorobenzo[b]thiophene-2-carboxamido)-3-phenylpropanoic acid]	> 100
O=C(N[C@@H](Cc1ccccc1)C(=O)O)c1sc2ccccc2c1Cl [Compound 11b, (S)-2-(3-chlorobenzo[b]thiophene-2-carboxamido)-3-phenylpropanoic acid]	> 100
O=C(N[C@H](Cc1ccccc1)C(=O)O)c1sc2ccc(F)cc2c1Cl [Compound 12a, (R)-2-(3-chloro-5-fluorobenzo[b]thiophene-2-carboxamido)-3-phenylpropanoic acid]	47.3 ± 4.1
O=C(N[C@@H](Cc1ccccc1)C(=O)O)c1sc2ccc(F)cc2c1Cl [Compound 12b, (S)-2-(3-chloro-5-fluorobenzo[b]thiophene-2-carboxamido)-3-phenylpropanoic acid]	54.1 ± 5.7
O=C(N[C@H](Cc1ccccc1)C(=O)O)c1cc2ccc(F)cc2s1 [Compound 13a, (R)-2-(6-fluorobenzo[b]thiophene-2-carboxamido)-3-phenylpropanoic acid]	> 100
O=C(N[C@@H](Cc1ccccc1)C(=O)O)c1cc2ccc(F)cc2s1 [Compound 13b, (S)-2-(6-fluorobenzo[b]thiophene-2-carboxamido)-3-phenylpropanoic acid]	> 100

Same assay, conditions: whole cell inhibitory activity; second part of Table 1 (R5/R6 series)

SMILES	IC50 [µM]
O=C(O)[C@@H](Cc1ccccc1)NS(=O)(=O)c1ccccc1F [Compound 14a, (R)-2-(2-fluorophenylsulfonamido)-3-phenylpropanoic acid]	> 100
O=C(O)[C@H](Cc1ccccc1)NS(=O)(=O)c1ccccc1F [Compound 14b, (S)-2-(2-fluorophenylsulfonamido)-3-phenylpropanoic acid]	> 100
O=C(O)[C@@H](Cc1ccccc1)NS(=O)(=O)c1cccc(F)c1 [Compound 15a, (R)-2-(3-fluorophenylsulfonamido)-3-phenylpropanoic acid]	> 100
O=C(O)[C@H](Cc1ccccc1)NS(=O)(=O)c1cccc(F)c1 [Compound 15b, (S)-2-(3-fluorophenylsulfonamido)-3-phenylpropanoic acid]	> 100
O=C(O)[C@@H](Cc1ccccc1)NS(=O)(=O)c1ccc(F)cc1 [Compound 16a, (R)-2-(4-fluorophenylsulfonamido)-3-phenylpropanoic acid]	> 100
O=C(O)[C@H](Cc1ccccc1)NS(=O)(=O)c1ccc(F)cc1 [Compound 16b, (S)-2-(4-fluorophenylsulfonamido)-3-phenylpropanoic acid]	> 100
O=C(O)[C@@H](Cc1ccc(O)cc1)NS(=O)(=O)c1ccccc1F [Compound 17a, (R)-2-(2-fluorophenylsulfonamido)-3-(4-hydroxyphenyl)propanoic acid]	> 100
O=C(O)[C@H](Cc1ccc(O)cc1)NS(=O)(=O)c1ccccc1F [Compound 17b, (S)-2-(2-fluorophenylsulfonamido)-3-(4-hyroxyphenyl)propanoic acid]	> 100
